According to a melting point compilation (Tetko et al.; mined from patent text by program, amines drawn as free bases though some values may be those of a salt):

SMILES	melting point [°C]
Cc1ccc(Sc2c(Cl)c(C(=O)O)c(C(O)=NCCO)c(Cl)c2Sc2ccc(C)cc2)cc1	211 to 212
Cc1[nH]c(C(C)(C)C)nc1C=O	196 to 198
CCCCCCCN(CC)CCC(O)c1ccc(NS(C)(=O)=O)cc1 (stereo unspecified)	74 to 75
CCc1cc(-c2ccc(F)cc2)c(O)cc1OC(CC)Oc1cc(NC(=O)CCCC(=O)N2CCOCC2)ccc1CCC(=O)O (stereo unspecified)	78 to 80
CON=C1CCCCC1n1nc(-c2c(-c3ccccc3)nn3ccccc23)ccc1=O (stereo unspecified)	85 to 87
O=Cc1ccc2cc(C=O)ccc2c1	173 to 174
CCN(CC)c1c([N+](=O)[O-])cc(C#N)c(N)c1[N+](=O)[O-]	146
COc1cc(N)c(Cl)cc1C(=O)NC1CCN(CC2CCN(C(=O)c3ccccc3)CC2)CC1	114 to 116
CCCC(=O)C(=O)NCC(=O)c1cccnc1	80 to 82
Cc1cc(=O)oc2cccc(SC(=O)N(C)C)c12	129
O=C1Nc2ccc(F)cc2C1CCCCN1CCN(c2cc(Cl)cc3c2OCCO3)CC1 (stereo unspecified)	146 to 148
O=C1Cc2cccc(Sc3ccccc3)c2N1	160 to 161
CC(CC#N)n1nnc2cc3c(=O)n(C(C)Cn4ncnn4)nnc3cc2c1=O (stereo unspecified)	105 to 108
N=C(N)c1ccc2cc(OC(=O)CCCCCNC(=O)OCc3ccccc3)ccc2c1	119 to 122
COC(=O)CSc1cccc(CN)c1	72
O=c1ccc(S(=O)(=O)n2cccc2)n[nH]1	140 to 145
COc1cc2c(cc1C(F)(F)F)N(C(=O)Nc1cncc(-c3cnccc3C)c1)CC2	125 to 128
Fc1cccc(CSc2nnc(-c3ccc4nccn4c3)o2)c1	173 to 174
C[C@]1(N2C(=O)c3cccc(Nc4ccc5c(c4)CCC5)c3C2=O)CCC(=O)NC1=O	200 to 202
COCCN(CCOC)c1nc(C)[nH]c2c(-c3ccc(Cl)cc3Cl)nc(C)c1-2	74 to 75

SMILES	melting point [°C]
CNC(=O)C1=CC(CF)(CF)Oc2ccc(C(F)(F)F)cc21	162 to 164
Fc1cccc(CC2(Cc3cccc(F)n3)c3cccnc3-c3ncccc32)n1	221 to 225
COC(=O)CCCc1ccc(C(=O)CCCc2ccccc2)cc1	61 to 62
Cc1ccc2c(c1)oc1c(C(=O)NN3CCOCC3)nn(-c3ccc(Cl)cc3Cl)c12	178 to 180
COC(=O)c1ccc(NN=CC(F)(F)F)cc1S(=O)(=O)NC(=O)Nc1nc(OC)nc(OC)n1	117 to 119
Cc1c(NC(=O)CCCC(=O)c2ccc(F)cc2)ccc2cc(CN3CCCC3)cnc12	170 to 171
c1ccc2c(c1)Cn1cccc1C1CNCCN21 (stereo unspecified)	56 to 58
COc1cc(C)c2ccc(Br)cc2n1	58 to 60
Cc1c(C=O)c2cnnc(OCc3ccccc3)c2n1Cc1ccccc1	147 to 149
O=C1NC(=O)c2cc(Nc3ccc(O)c(O)c3)c(Nc3ccccc3)cc21	204 to 205
Cc1c[nH]c(C)c1-c1nc2ccc(C(=O)c3ccccc3)cc2[nH]1	207 to 214
COC(=O)c1cccc(-c2nc(C(=O)c3ccc(N)c(C(=O)OC)c3)n3ccccc23)c1	203
COc1ccc(N2CCN(Cc3nn(C(C)=O)c4cc(F)ccc34)CC2)cc1	94 to 95
Oc1ccc(Nc2nccc(-c3ccncc3)n2)cc1	268 to 270
CCOC(=O)CN(C(=O)CN1C(=O)c2ccccc2C1=O)c1ccc(Cl)c(COc2cccc3ccc(C)nc23)c1Cl	211 to 213
CC(C)NC(=O)C1c2cc(NC(=O)c3cc(C(F)(F)F)nn3-c3ncccc3Cl)c(Cl)cc2CC1F (stereo unspecified)	98 to 99
CCOc1cc([C@@H](CS(C)(=O)=O)N2Cc3cccc(NCC(C)C)c3C2=O)ccc1OC	122 to 124
C#CC(=NOC)C(=O)OC	82 to 83
N#Cc1c(N)oc2c1CCCC2	179

Further lines, results first:

melting point [°C]	SMILES
123 to 126	COC(=O)CCc1ccccc1Cc1ccccc1C(=O)O
164 to 166	CCc1nn(CC(N)=O)c(CC)c1Oc1cc(Cl)cc(Cl)c1
> 300	Clc1cccc(Nc2ncnc3[nH]c(-c4ccccn4)cc23)c1
88 to 89	Clc1cc(Cl)n2nc(SCc3ccccc3)nc2c1
140 to 143	Nc1ncnc2c1c(-c1ccc3cn[nH]c3c1)nn2Cc1oc2ccccc2c(=O)c1-c1ccccc1
170 to 172	CC(=O)Nc1ccc(C#N)cc1F
196 to 201	CCCCN(CCCC)c1ccc(C=CC2=CC(=CC=CC3=C(C#N)C(=C(C#N)C#N)OC3(C)C(F)(F)F)CC(C)(C)C2)c(OC)c1 (stereo unspecified)
130 to 132	COC(=O)c1cc(-c2ccc(OC)cc2)nn(CC(=O)Nc2ccc(SC)cc2)c1=O
74	Cc1cccc(-c2nc3ccc(OCC(C)N(C)C)cc3n2Cc2ccccc2)c1 (stereo unspecified)
101 to 104	CC(C)Nc1nc2ccccn2c(=O)c1Br
76	CCOC(=O)Nc1ccc(-c2cccs2)s1
201 to 202	COC(=O)C(CC1(C)C(=O)Nc2ccccc21)NC(=O)c1ccc(Cl)cc1 (stereo unspecified)
190	Cc1ccc(CO)cc1NC(=O)CC12CC3CC(CC(C3)C1)C2
159 to 160	Cc1cccc(CC(=O)O)c1OCCCc1cn(-c2ccc(C(F)(F)F)cn2)nc1C(C)C
150 to 153	O=C1c2ccccc2C(O)(c2ccccc2)N1C1CCN(CCC(c2ccccc2)c2ccccc2)CC1 (stereo unspecified)
219	COc1cc(CCC2(C)OCc3c2cnc(C)c3O)cc(OC)c1OC (stereo unspecified)
94 to 95	CC(C)(OCCOCc1nn(Cc2ccccc2)c2ccccc12)C(=O)O
106	COC(=O)c1ccc(C(=O)c2c(C)c(OCc3cccc(OC)c3)c3ccccn23)cc1
76 to 78.5	CN(C)Cc1ccc(CSCCNc2nc(N)n[nH]2)o1

melting point [°C]	SMILES
184 to 185	COc1cc(C)nc(NC(=O)NS(=O)(=O)c2ccsc2C(=O)N2CCCC2=O)n1
201 to 204	Nc1nc2cc(-c3ccccc3)ccc2c2c1ncn2CCCN1CCCC1=O
201 to 203	CS(=O)(=O)N1CC2(CCN(C(=O)Nc3cnc(-c4ccccc4)cn3)CC2)c2ccccc21
90 to 91	C/C(=C\c1ccc(OCc2nc(-c3ccc(C(F)(F)F)cc3)oc2C)cc1)Cn1oc(=O)[nH]c1=O
153 to 154	COc1ccc2c(=O)c(-c3ccccc3)c(SCc3ccccc3)oc2c1
209	N#Cc1c(N2CCN(C(=O)c3ccco3)CC2)c2cc(F)ccc2n(Cc2ccccc2)c1=O
114 to 116	CCOC(=O)c1cc2ccc3oc4ccccc4c3c2n1C
182 to 186	Cc1nccn1-c1nc(NCc2ccccc2)c2ccccc2n1
232 to 234	Cn1ccnc1CNC(=O)c1[nH]c2ccc(Cl)cc2c1S(=O)(=O)c1cccc(Cl)c1
58 to 60	CC(Cl)(Cl)C1(Cl)N=C(Cl)C(Cl)=N1
210	O=C1C=C2CCCCC2N1c1ccc(O)cc1 (stereo unspecified)
254	Cn1c(=O)[n+]([O-])c(-c2ccccc2)c2cc(Cl)ccc21
133 to 134	CC(C(=O)C(O)C1OC(n2cc(F)c(=O)[nH]c2=O)C(O)C1O)c1ccccc1 (mixture of isomers)
158	Cc1cc(C(N)=O)co1
168 to 171	O=C1C(c2ccccc2)c2cccc3c2N1CCN3 (stereo unspecified)
64 to 66	CCCCCCCCCCCCCCOC(=O)NO
99 to 100	CCOC(=S)c1ncncc1C
> 260	O=C1CCC(N2C(=O)c3cccc(CNC(=O)c4cnccn4)c3C2=O)C(=O)N1 (stereo unspecified)
128 to 129	O=C1CCN(Cc2cccc(C(F)(F)F)c2)CC1C(c1ccccc1)c1ccccc1 (stereo unspecified)

melting point [°C]	SMILES
229 to 230	CC1CN(c2ccc(NC=C3C(=O)NC(=O)c4ccc(Br)cc43)cc2)CC(C)N1 (stereo unspecified)
167 to 168	CCOCc1nc2c(N)nc3cc(-c4cccc(C(=O)N5CCOCC5)c4)cnc3c2n1CC(C)(C)F
200 to 202	CCCCNC(=O)Nc1ccc(N2CCCC2)cc1C(=O)NCC1CCN(C(c2ccccc2)c2ccccc2)CC1
146 to 148	Nc1cc(Br)cnc1CCCCNc1ncc(Cc2ccc(F)cc2)c(=O)[nH]1
148 to 150	CCOC1C(NC(=O)C(F)(F)F)CC(OC(=O)c2ccc([N+](=O)[O-])cc2)OC1C (stereo unspecified)
113	CC(C)(C)[C@@H]1OC(=O)[C@@H]2[C@H]1C2(C)C
239 to 240	CNc1nc(-c2ccccc2)c(-c2nc3ccccc3c(=O)n2-c2ccc(C(C)=O)cc2)s1
241	O=C(Nc1cccc(S(=O)(=O)N2CCCC2)c1)c1cnn2c(C(F)(F)F)cc(-c3ccc(C(F)(F)F)cc3)nc12
180 to 181	CCCN1CC(c2ccc(F)cc2)=C(c2ccc(S(N)(=O)=O)cc2)C1=O
86 to 88	O=C(O)CCC(CCCCNS(=O)(=O)c1ccc(Cl)cc1)CCOc1cccnc1 (stereo unspecified)
214 to 216	COc1cccc(Nc2cc(Nc3ccc(F)c(Cl)c3)ncn2)c1
203	CCCCc1nc2sccc2n1Cc1ccc(-c2ccccc2C(=O)O)cc1
148 to 152	C#CC1=CCC2C3CCC4=CC(=O)CCC4C3CCC12C (stereo unspecified)
64 to 65	COC1C(OC(=O)N2CCOCC2)CCC2(CO2)C1C1(C)OC1CCC(C)C (stereo unspecified)
85.4 to 87.2	CC(C)(C)OC(=O)N1c2ccccc2CC1COc1ccc(CC2SC(=O)N(C(c3ccccc3)(c3ccccc3)c3ccccc3)C2=O)cc1 (stereo unspecified)
147 to 149	COC(=O)c1ccccc1C(=O)c1ccc(O)cc1
198	CCOC(=O)C1=C(COCCNC(N)=S)NC(C)=C(C(=O)OC)C1c1cccc(Cl)c1Cl (stereo unspecified)
150 to 151	O=C(O)CCC(=O)c1ccc(N2CCCCC2)cc1
92	Cc1cc(-n2ccnc2)c2cccc(OCc3c(Cl)ccc(S(=O)(=O)N4CCCC4C(=O)NCC4CCN(CCC(=O)OC(C)(C)C)CC4)c3Cl)c2n1 (stereo unspecified)
